Key:
Assay in all cases: relative viability (nuclei count vs DMSO), 5 days (fraction); higher = more cells survive
[1] = compound: NC(=O)[C@@H](CCC(F)(F)F)N(Cc1ccc(-c2ncon2)cc1F)S(=O)(=O)c1ccc(Cl)cc1 [Avagacestat] + CC(=O)c1c(C)c2cnc(Nc3ccc(N4CCNCC4)cn3)nc2n(C2CCCC2)c1=O [Palbociclib] (partner 0.5 µM)
How it was run: (§1)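 Cells from lung cancer lines were seeded into 1536-well plates and, one day later, dosed by pin tool. Treatments were either a single drug or a fixed dose of an anchor drug with five library-drug doses (not always all listed) in √10 steps. After 5 days, nuclei were stained in a one-step fixation (final 0.05% Triton X-100, 1% formaldehyde, 1 ug/ml Hoechst) and counted on 4× images, and relative viability is the treated-to-vehicle nuclei ratio, as the median of duplicate plates.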

Avagacestat + Alpelisib = compound: NC(=O)[C@@H](CCC(F)(F)F)N(Cc1ccc(-c2ncon2)cc1F)S(=O)(=O)c1ccc(Cl)cc1 [Avagacestat] + Cc1nc(NC(=O)N2CCC[C@H]2C(N)=O)sc1-c1ccnc(C(C)(C)C(F)(F)F)c1 [Alpelisib] (partner 2 µM)
How it was run: as §1

Avagacestat + Pemetrexed = compound: NC(=O)[C@@H](CCC(F)(F)F)N(Cc1ccc(-c2ncon2)cc1F)S(=O)(=O)c1ccc(Cl)cc1 [Avagacestat] + Nc1nc2[nH]cc(CCc3ccc(C(=O)N[C@@H](CCC(=O)O)C(=O)O)cc3)c2c(=O)[nH]1 [Pemetrexed] (partner 0.2 µM)
How it was run: as §1

Avagacestat + Olaparib = compound: NC(=O)[C@@H](CCC(F)(F)F)N(Cc1ccc(-c2ncon2)cc1F)S(=O)(=O)c1ccc(Cl)cc1 [Avagacestat] + O=C(c1cc(Cc2n[nH]c(=O)c3ccccc23)ccc1F)N1CCN(C(=O)C2CC2)CC1 [Olaparib] (partner 8 µM)
How it was run: as §1

Cell Line	relative viability ([1]; first compound 0.08 µM)	relative viability ([1]; first compound 0.253 µM)	relative viability ([1]; first compound 0.8 µM)	relative viability ([1]; first compound 2.53 µM)	relative viability ([1]; first compound 8 µM)	relative viability (Avagacestat + Alpelisib; first compound 0.08 µM)	relative viability (Avagacestat + Alpelisib; first compound 0.253 µM)	relative viability (Avagacestat + Alpelisib; first compound 0.8 µM)	relative viability (Avagacestat + Alpelisib; first compound 2.53 µM)	relative viability (Avagacestat + Alpelisib; first compound 8 µM)	relative viability (Avagacestat + Pemetrexed; first compound 0.08 µM)	relative viability (Avagacestat + Pemetrexed; first compound 0.253 µM)	relative viability (Avagacestat + Pemetrexed; first compound 0.8 µM)	relative viability (Avagacestat + Pemetrexed; first compound 2.53 µM)	relative viability (Avagacestat + Pemetrexed; first compound 8 µM)	relative viability (Avagacestat + Olaparib; first compound 0.08 µM)	relative viability (Avagacestat + Olaparib; first compound 0.253 µM)	relative viability (Avagacestat + Olaparib; first compound 0.8 µM)	relative viability (Avagacestat + Olaparib; first compound 2.53 µM)	relative viability (Avagacestat + Olaparib; first compound 8 µM)
LXF-289	0.624	0.613	0.612	0.578	0.582	1.08	1.15	1.04	1.1	0.949	0.986	0.947	0.936	0.905	0.799	1.41	1.41	1.15	1.08	1.04
NCI-H23	0.515	0.566	0.505	0.44	0.572	0.912	0.766	0.768	0.683	0.688	0.966	0.863	0.905	0.801	0.31	0.302	0.316	0.315	0.335	0.296
NCI-H322M	0.456	0.442	0.455	0.419	0.531	0.762	0.787	0.904	0.633	0.54	0.621	0.619	0.632	0.608	0.569	0.827	0.774	0.783	0.685	0.668
NCI-H358	0.148	0.137	0.126	0.143	0.132	0.938	0.908	0.872	0.711	0.777	0.168	0.197	0.18	0.172	0.168	0.704	0.559	0.655	0.596	0.562
NCI-H441	0.242	0.214	0.249	0.229	0.218	0.92	0.761	1.05	0.973	0.986	0.269	0.252	0.272	0.271	0.298	0.679	0.592	0.656	0.803	0.613
NCI-H460	0.128	0.104	0.14	0.146	0.131	0.724	0.538	0.688	0.472	0.357	0.0657	0.0554	0.0635	0.0567	0.0624	0.549	0.565	0.532	0.385	0.36
NCI-H520	0.21	0.23	0.198	0.194	0.201	1.16	0.868	0.74	0.7	0.715	0.792	0.801	0.844	0.703	0.559	0.337	0.367	0.335	0.338	0.251
NCI-H647	0.456	0.497	0.486	0.341	0.35	1.46	0.994	1.3	0.959	0.884	0.171	0.171	0.186	0.149	0.15	0.766	0.663	0.626	0.508	0.366
NCI-H650	0.313	0.361	0.314	0.275	0.308	1.12	1.57	1.21	1.32	1.19	1.05	1.04	1.04	0.944	0.868	0.399	0.524	0.403	0.427	0.412
NCI-H661	0.415	0.343	0.428	0.386	0.419	0.803	0.664	1.08	–	0.589	0.953	1.01	0.92	0.86	0.909	0.795	0.918	0.771	0.774	0.725
NCI-H838	0.221	0.244	0.226	0.208	0.215	1.19	1.18	1.06	0.906	0.814	0.263	0.271	0.28	0.238	0.243	1.08	0.87	0.881	0.805	0.575
NCI-H1355	0.441	0.418	0.353	0.351	0.333	0.924	0.994	0.74	0.759	0.787	1.15	1.15	1.21	0.996	0.943	0.851	0.778	0.73	0.691	0.718
NCI-H1395	0.675	0.64	0.594	0.486	0.593	0.938	0.996	0.879	1.05	0.943	0.866	0.954	1.08	0.798	0.696	0.463	0.475	0.516	0.359	0.435
NCI-H1437	0.329	0.341	0.361	0.306	0.294	1.22	1.25	0.921	0.894	0.849	0.336	0.346	0.329	0.301	0.298	0.804	0.743	0.696	0.667	0.543
NCI-H1651	0.521	0.51	0.569	0.46	0.504	1.05	1.3	1.15	0.978	0.909	0.71	0.591	0.731	0.574	0.559	0.219	0.188	0.179	0.19	0.19
NCI-H1666	0.69	0.699	0.642	0.714	0.644	1.26	0.982	1.32	1.03	1.1	0.938	0.871	0.877	0.822	0.889	0.843	0.863	0.808	0.955	0.758
NCI-H1734	0.384	0.335	0.399	0.301	0.328	0.896	0.641	0.737	0.674	0.67	0.437	0.398	0.401	0.426	0.434	0.731	0.747	0.614	0.574	0.633
NCI-H1755	0.444	0.438	0.492	0.389	0.463	1.24	1.1	1.05	0.939	0.777	0.541	0.478	0.383	0.372	0.383	0.894	0.957	0.901	0.914	0.884
NCI-H1792	0.817	–	0.751	–	0.612	0.871	0.618	0.774	0.541	0.562	1.54	1.08	1.28	0.818	0.451	0.673	0.605	0.563	0.408	0.726
NCI-H1793	0.348	0.324	0.331	0.263	0.316	0.967	0.777	0.822	0.769	0.672	0.907	1.03	1.07	0.94	0.785	1.04	0.601	1.11	0.827	0.616
NCI-H1915	0.513	0.522	0.477	0.502	0.519	1.03	1.12	1.04	1.03	1.02	0.521	0.573	0.537	0.5	0.52	0.264	0.28	0.257	0.249	0.227
NCI-H1944	0.32	0.343	0.265	0.272	0.269	0.874	0.857	0.844	0.667	0.758	0.784	0.654	0.613	0.599	0.585	0.492	0.448	0.46	0.4	0.421
NCI-H1975	0.688	0.633	0.887	0.599	0.536	0.686	0.62	0.719	0.585	0.665	0.312	0.325	0.316	0.291	0.308	1.03	1.04	0.94	0.814	0.665
NCI-H1993	0.758	0.714	0.705	0.572	0.638	0.756	0.691	0.693	0.752	0.727	0.826	0.542	0.686	0.684	0.504	1.28	1.1	1.17	1.17	0.836
NCI-H2009	0.201	0.202	0.214	0.215	0.199	1.28	1.29	1.16	1.18	1.08	1.16	1.15	1.11	1.02	0.975	0.718	0.73	0.779	0.667	0.66
NCI-H2023	0.363	0.327	0.33	0.316	0.294	0.659	0.781	0.536	0.562	0.536	0.322	0.221	0.302	0.257	0.221	0.751	0.52	0.479	0.493	0.475
